Measurements as given in US20220395553A1, “CXCR4 ANTAGONIST PEPTIDES” (COHBAR, INC., priority 2019, published 2022).
Square brackets hold non-standard residues; d marks the D form. Peptide text beside a SMILES is read from it.

Experiments:
[1] = biological target: T1, human CXCR4 (Homo sapiens, UniProt P61073); assay: CXCR4/CXCL12 binding, HTRF format, single concentration (Example 23); design: host or cells: HEK293 (Tag-lite CXCR4 cells, frozen aliquots, transient expression); settings: 15 nM CXCR4R fluorescent probe, 3 hours, HEK293 Tag-lite CXCR4 cells
T1 sequence (P61073 whole entry): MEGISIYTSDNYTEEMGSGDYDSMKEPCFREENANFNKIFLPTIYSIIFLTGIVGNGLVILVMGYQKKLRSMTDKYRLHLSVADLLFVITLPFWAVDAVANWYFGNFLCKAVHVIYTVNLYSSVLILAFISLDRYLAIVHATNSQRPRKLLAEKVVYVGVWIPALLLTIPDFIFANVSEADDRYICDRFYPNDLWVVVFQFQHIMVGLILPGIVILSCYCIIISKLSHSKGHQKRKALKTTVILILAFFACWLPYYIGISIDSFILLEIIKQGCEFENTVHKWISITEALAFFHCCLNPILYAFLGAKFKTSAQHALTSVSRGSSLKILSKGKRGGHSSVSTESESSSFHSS
Experimental: Peptides were initially prepared as 1 mM stock in H2O and tested at a final concentration of 400 nM. Following the manufacture's protocol, a frozen aliquot of Tag-lite CXCR4 cells was thawed and immediately seeded onto 384-well plates in TLB. Immediately following the addition of cells, 400 nM peptide (final concentration) in TLB was added to the appropriate well. Then 15 nM (final concentration; EC80) of CXCR4R fluorescent probe was added to each well to initiate the HTRF assay. The plates were covered in aluminum foil and left at room temperature for 3 hours. Following the 3 hour incubation period, the plates were removed from the incubator and fluorescence measured using a Cytation 1 plate reader using a HTRF filter cube ([…]; BioTek; Winooski, Vt.). According manufacture's instruction data reduction was performed by calculating the ratio of 665 nm signal (TRF of 665 nm excitation by 620 emission; amount of CXCR4R fluorescent probe bound to terbium labeled CXCR receptor)/620 nm signal (620 excitation by 330 nm light source; normalization factor for amount of terbium labeled CXCR4 receptor in well)×10,000.

[2] = biological target: T1, human CXCR4; assay: IC50 for inhibition of CXCR4 activation, β-Arrestin recruitment (Example 22); assay type: cell-based; design: host or cells: C2C12 (mouse myoblast) CXCR4 β-Arrestin PathHunter cell line
Experimental: The assay was run with the DiscoverX protocol. β-Arrestin recruitment assays were performed by Eurofins-DiscoverX (Fremont, Calif.) using C2C12 CXCR4 β-Arrestin cell line (co-expressing ProLink tagged human CXCR4 and Enzyme Acceptor tagged β-Arrestin) and PathHunter detection kit. Peptides were initially prepared as 1 mM stock in H2O and tested in ten (10)-step concentration response curves using 3-fold dilution steps with 1 μM as highest concentration; a concentration range of 1 μM-0.05 nM was tested. C2C12 CXCR4 β-Arrestin cells were seed onto 384-well plates in standard medium. […] At the end of the 90 min incubation period, β-Arrestin recruitment in response to various treatments was quantified using a chemiluminescent complementation reporter assay to measure association of tagged human […] (ProLink tag) and tagged β-Arrestin (Enzyme Acceptor tag).

SMILES	Percent Inhibition of CXCR4/CXCL12 Binding (400 nM peptide) [1] [%]	IC50 [2] [nM]
CC(C)C[C@H](NC(=O)[C@H](CO)NC(=O)[C@H](CO)NC(=O)[C@H](CCCNC(=N)N)NC(=O)[C@@H](C)NC(=O)[C@H](CO)NC(=O)[C@H](Cc1c[nH]cn1)NC(=O)[C@H](Cc1c[nH]cn1)NC(=O)[C@H](Cc1ccc(O)cc1)NC(=O)[C@H](CCCNC(=N)N)NC(=O)[C@H](CCCNC(=N)N)NC(=O)[C@@H](N)CC(C)C)C(=O)N[C@@H](CCCNC(=N)N)C(=O)N1CCC[C@H]1C(=O)N[C@@H](Cc1ccc(O)cc1)C(=O)N[C@H](C(=O)N[C@@H](CCCCN)C(=O)O)[C@@H](C)O [compound 6] (H-LRRYHHS[dA]RSSLRPYTK-OH; N-terminus and C-terminus assumed)	−10	8
CC(C)C[C@H](NC(=O)[C@H](CO)NC(=O)[C@H](CO)NC(=O)[C@H](CCCNC(=N)N)NC(=O)[C@@H](NC(=O)[C@H](CO)NC(=O)[C@H](Cc1c[nH]cn1)NC(=O)[C@H](Cc1c[nH]cn1)NC(=O)[C@H](Cc1ccc(O)cc1)NC(=O)[C@@H](N)CCCNC(=N)N)C(C)C)C(=O)N[C@@H](CCCNC(=N)N)C(=O)N1CCC[C@H]1C(=O)N[C@@H](Cc1ccc(O)cc1)C(=O)N[C@H](C(=O)N[C@@H](CCCCN)C(=O)O)[C@@H](C)O [compound 11] (H-RYHHSVRSSLRPYTK-OH; N-terminus and C-terminus assumed)	−9	175
CC(C)C[C@H](NC(=O)[C@H](CO)NC(=O)[C@H](CO)NC(=O)[C@H](CCCNC(=N)N)NC(=O)[C@@H](NC(=O)[C@H](CO)NC(=O)[C@H](Cc1c[nH]cn1)NC(=O)[C@H](Cc1c[nH]cn1)NC(=O)[C@H](Cc1ccc(O)cc1)NC(=O)[C@H](CCCNC(=N)N)NC(=O)[C@H](CCC(=O)O)NC(=O)[C@@H](N)CC(C)C)C(C)C)C(=O)O [compound 22] (H-LERYHHSVRSSL-OH; N-terminus and C-terminus assumed)	14	17
CC(C)C[C@H](NC(=O)[C@H](CO)NC(=O)[C@H](CO)NC(=O)[C@H](CCCNC(=N)N)NC(=O)[C@@H](NC(=O)[C@H](CO)NC(=O)[C@H](Cc1c[nH]cn1)NC(=O)[C@H](Cc1c[nH]cn1)NC(=O)[C@H](Cc1ccc(O)cc1)NC(=O)[C@H](CCCNC(=N)N)NC(=O)[C@H](CCCNC(=N)N)NC(=O)[C@@H](N)CC(C)C)C(C)C)C(=O)O [compound 28] (H-LRRYHHSVRSSL-OH; N-terminus and C-terminus assumed)	12	4
CC(C)C[C@H](NC(=O)[C@H](CO)NC(=O)[C@H](CO)NC(=O)[C@H](CCCNC(=N)N)NC(=O)[C@@H](NC(=O)[C@H](CO)NC(=O)[C@H](Cc1c[nH]cn1)NC(=O)[C@H](CC(N)=O)NC(=O)[C@H](Cc1ccc(O)cc1)NC(=O)[C@H](CCCNC(=N)N)NC(=O)[C@H](CCCNC(=N)N)NC(=O)[C@@H](N)CC(C)C)C(C)C)C(=O)N[C@@H](CCCNC(=N)N)C(=O)N1CCC[C@H]1C(=O)N[C@@H](Cc1ccc(O)cc1)C(=O)N[C@H](C(=O)N[C@@H](CCCCN)C(=O)O)[C@@H](C)O [compound 41] (H-LRRYNHSVRSSLRPYTK-OH; N-terminus and C-terminus assumed)	−2	4
CC(C)C[C@H](NC(=O)[C@H](CO)NC(=O)[C@H](CO)NC(=O)[C@H](CCCNC(=N)N)NC(=O)[C@@H](NC(=O)[C@H](CO)NC(=O)[C@H](CC(N)=O)NC(=O)[C@H](Cc1c[nH]cn1)NC(=O)[C@H](Cc1ccc(O)cc1)NC(=O)[C@H](CCCNC(=N)N)NC(=O)[C@H](CCC(=O)O)NC(=O)[C@@H](N)CC(C)C)C(C)C)C(=O)N[C@@H](CCCNC(=N)N)C(=O)N1CCC[C@H]1C(=O)N[C@@H](Cc1ccc(O)cc1)C(=O)N[C@H](C(=O)N[C@@H](CCCCN)C(=O)O)[C@@H](C)O [compound 45] (H-LERYHNSVRSSLRPYTK-OH; N-terminus and C-terminus assumed)	1	121
CC(C)C[C@H](NC(=O)[C@H](CO)NC(=O)[C@H](CO)NC(=O)[C@H](CCCNC(=N)N)NC(=O)[C@@H](NC(=O)[C@H](CO)NC(=O)[C@H](Cc1c[nH]cn1)NC(=O)[C@H](CCC(N)=O)NC(=O)[C@H](Cc1ccc(O)cc1)NC(=O)[C@H](CCCNC(=N)N)NC(=O)[C@H](CCCNC(=N)N)NC(=O)[C@@H](N)CC(C)C)C(C)C)C(=O)N[C@@H](CCCNC(=N)N)C(=O)N1CCC[C@H]1C(=O)N[C@@H](Cc1ccc(O)cc1)C(=O)N[C@H](C(=O)N[C@@H](CCCCN)C(=O)O)[C@@H](C)O [compound 47] (H-LRRYQHSVRSSLRPYTK-OH; N-terminus and C-terminus assumed)	5	11
CC(C)C[C@H](NC(=O)[C@H](CO)NC(=O)[C@H](CO)NC(=O)[C@H](CCCNC(=N)N)NC(=O)[C@@H](NC(=O)[C@H](CO)NC(=O)[C@H](CCC(N)=O)NC(=O)[C@H](Cc1c[nH]cn1)NC(=O)[C@H](Cc1ccc(O)cc1)NC(=O)[C@H](CCCNC(=N)N)NC(=O)[C@H](CCCNC(=N)N)NC(=O)[C@@H](N)CC(C)C)C(C)C)C(=O)N[C@@H](CCCNC(=N)N)C(=O)N1CCC[C@H]1C(=O)N[C@@H](Cc1ccc(O)cc1)C(=O)N[C@H](C(=O)N[C@@H](CCCCN)C(=O)O)[C@@H](C)O [compound 50] (H-LRRYHQSVRSSLRPYTK-OH; N-terminus and C-terminus assumed)	−5	121
CC(C)C[C@H](NC(=O)[C@H](CO)NC(=O)[C@H](CO)NC(=O)[C@H](CCCNC(=N)N)NC(=O)[C@@H](C)NC(=O)[C@H](CO)NC(=O)[C@H](CCC(N)=O)NC(=O)[C@H](Cc1c[nH]cn1)NC(=O)[C@H](Cc1ccc(O)cc1)NC(=O)[C@H](CCCNC(=N)N)NC(=O)[C@H](CCC(=O)O)NC(=O)[C@@H](N)CC(C)C)C(=O)N[C@@H](CCCNC(=N)N)C(=O)N1CCC[C@H]1C(=O)N[C@@H](Cc1ccc(O)cc1)C(=O)N[C@H](C(=O)N[C@@H](CCCCN)C(=O)O)[C@@H](C)O [compound 52] (H-LERYHQS[dA]RSSLRPYTK-OH; N-terminus and C-terminus assumed)	−2	121
CC(C)C[C@H](NC(=O)[C@H](CO)NC(=O)[C@H](CO)NC(=O)[C@H](CCCNC(=N)N)NC(=O)[C@@H](NC(=O)[C@H](CO)NC(=O)[C@H](Cc1c[nH]cn1)NC(=O)[C@H](Cc1c[nH]cn1)NC(=O)[C@H](Cc1ccc(O)cc1)NC(=O)[C@H](CCCNC(=N)N)NC(=O)[C@H](CCCNC(=N)N)NC(=O)[C@@H](N)CC(C)C)C(C)C)C(=O)N[C@@H](CCC(=O)O)C(=O)N1CCC[C@H]1C(=O)N[C@@H](Cc1ccc(O)cc1)C(=O)N[C@H](C(=O)N[C@@H](CCCCN)C(=O)O)[C@@H](C)O [compound 63] (H-LRRYHHSVRSSLEPYTK-OH; N-terminus and C-terminus assumed)	9	14
CC(C)C[C@H](NC(=O)[C@H](CO)NC(=O)[C@H](CO)NC(=O)[C@H](CCC(=O)O)NC(=O)[C@@H](C)NC(=O)[C@H](CO)NC(=O)[C@H](Cc1c[nH]cn1)NC(=O)[C@H](Cc1c[nH]cn1)NC(=O)[C@H](Cc1ccc(O)cc1)NC(=O)[C@H](CCCNC(=N)N)NC(=O)[C@H](CCCNC(=N)N)NC(=O)[C@@H](N)CC(C)C)C(=O)N[C@@H](CCCNC(=N)N)C(=O)N1CCC[C@H]1C(=O)N[C@@H](Cc1ccc(O)cc1)C(=O)N[C@H](C(=O)N[C@@H](CCCCN)C(=O)O)[C@@H](C)O [compound 64] (H-LRRYHHS[dA]ESSLRPYTK-OH; N-terminus and C-terminus assumed)	−6	14
